Earlier results, collected in patent US20220265670A1, “COMPOSITION AND USE THEREOF FOR THE TREATMENT OF CUTANEOUS MASTOCYTOSIS” (AC BIOSCIENCE SA, priority 2019, published 2022).

Experiments:
[1] = target: c-Kit (Homo sapiens, UniProt P10721)
[2] = system: PDGF-R; settings: cellular level; read-out: IC50, PDGF-R-dependent cell proliferation
[3] = system: mast degranulation; settings: low masitinib concentrations
[4] = system: JM-mutated (exon 11) c-Kit; settings: cellular level; read-out: IC50, JM-mutated (exon 11) c-Kit-dependent cell proliferation

Chain of c-Kit (P10721 26-976): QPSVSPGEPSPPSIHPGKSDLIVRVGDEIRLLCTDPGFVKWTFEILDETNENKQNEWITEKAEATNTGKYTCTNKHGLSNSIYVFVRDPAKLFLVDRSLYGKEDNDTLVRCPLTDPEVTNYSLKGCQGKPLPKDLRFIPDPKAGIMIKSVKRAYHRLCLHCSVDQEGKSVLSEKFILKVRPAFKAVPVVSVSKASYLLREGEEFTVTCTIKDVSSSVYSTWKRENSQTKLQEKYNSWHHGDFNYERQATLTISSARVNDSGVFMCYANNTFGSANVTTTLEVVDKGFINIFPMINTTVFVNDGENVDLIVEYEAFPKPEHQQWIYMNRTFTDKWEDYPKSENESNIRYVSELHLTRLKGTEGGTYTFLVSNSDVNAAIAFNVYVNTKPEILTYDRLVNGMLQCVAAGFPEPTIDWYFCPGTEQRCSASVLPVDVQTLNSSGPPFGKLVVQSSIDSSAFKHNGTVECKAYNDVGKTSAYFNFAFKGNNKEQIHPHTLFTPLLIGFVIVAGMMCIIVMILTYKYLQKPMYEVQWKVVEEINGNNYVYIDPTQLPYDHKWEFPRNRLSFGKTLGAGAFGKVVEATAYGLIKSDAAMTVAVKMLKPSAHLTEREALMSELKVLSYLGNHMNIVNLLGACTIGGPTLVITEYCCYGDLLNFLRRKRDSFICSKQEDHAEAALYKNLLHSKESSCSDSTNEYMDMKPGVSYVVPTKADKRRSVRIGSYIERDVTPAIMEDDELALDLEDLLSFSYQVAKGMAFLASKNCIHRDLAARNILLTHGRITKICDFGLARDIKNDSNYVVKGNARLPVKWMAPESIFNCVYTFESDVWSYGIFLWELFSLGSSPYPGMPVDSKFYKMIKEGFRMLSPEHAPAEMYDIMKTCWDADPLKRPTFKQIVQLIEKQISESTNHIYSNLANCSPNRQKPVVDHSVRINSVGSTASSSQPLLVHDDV

SMILES | inhibitory profile relative to masitinib [1] | IC50 [2] [nM] | inhibition of mast degranulation [3] | IC50 [4] [nM]
Cc1ccc(NC(=O)c2ccc(CN3CCNCC3)cc2)cc1Nc1nc(-c2cccnc2)cs1 [AB3280] | essentially the same inhibitory profile as masitinib, even though slightly less potent than masitinib |  |  | 
Cc1ccc(NC(=O)c2ccc(CN3CCN(C)CC3)cc2)cc1Nc1nc(-c2cccnc2)cs1 [Masitinib] |  | […] | significant inhibition of mast degranulation | 5
